Laboratory results taken from ChEMBL document CHEMBL1153399, “Design, synthesis and SAR studies of tripeptide analogs with the scaffold 3-phenylpropane-1,2-diamine as aminopeptidase N/CD13 inhibitors” (Bioorg Med Chem, 2009).

Key:
Aminopeptidase N = target: T1, Aminopeptidase N (Sus scrofa, UniProt P15145); assay: Inhibition of pig kidney microsomal APN
T1 sequence (P15145 whole entry): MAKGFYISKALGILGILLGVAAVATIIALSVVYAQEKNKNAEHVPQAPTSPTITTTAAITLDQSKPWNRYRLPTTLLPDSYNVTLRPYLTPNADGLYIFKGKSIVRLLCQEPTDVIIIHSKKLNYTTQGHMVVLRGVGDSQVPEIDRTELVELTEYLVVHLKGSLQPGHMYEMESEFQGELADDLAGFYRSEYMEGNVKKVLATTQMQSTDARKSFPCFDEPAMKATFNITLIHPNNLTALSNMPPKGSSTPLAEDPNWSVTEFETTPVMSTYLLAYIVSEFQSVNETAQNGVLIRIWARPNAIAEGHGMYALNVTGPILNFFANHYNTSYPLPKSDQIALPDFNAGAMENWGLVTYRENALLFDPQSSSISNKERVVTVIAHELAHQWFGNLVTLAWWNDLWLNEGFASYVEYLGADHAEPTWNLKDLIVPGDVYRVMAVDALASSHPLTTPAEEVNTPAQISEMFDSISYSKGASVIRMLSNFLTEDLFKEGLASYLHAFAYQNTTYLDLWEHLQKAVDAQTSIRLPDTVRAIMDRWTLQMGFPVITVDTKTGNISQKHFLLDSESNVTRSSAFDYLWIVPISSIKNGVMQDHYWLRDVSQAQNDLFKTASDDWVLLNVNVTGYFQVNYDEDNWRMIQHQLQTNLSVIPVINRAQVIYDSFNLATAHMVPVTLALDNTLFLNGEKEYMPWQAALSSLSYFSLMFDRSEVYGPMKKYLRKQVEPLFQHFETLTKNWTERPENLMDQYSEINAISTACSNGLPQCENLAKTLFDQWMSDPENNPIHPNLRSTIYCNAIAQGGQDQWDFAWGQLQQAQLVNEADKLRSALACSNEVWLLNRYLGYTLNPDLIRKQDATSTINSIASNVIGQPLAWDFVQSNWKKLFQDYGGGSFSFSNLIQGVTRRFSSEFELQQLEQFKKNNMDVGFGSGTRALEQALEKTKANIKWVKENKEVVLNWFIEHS

HL-60 = assay: Cytotoxicity against human HL60 cells after 48 hrs by MTT assay; type: functional, cell-based; settings: HL-60, 48 h

Structure (SMILES) | IC50 (Aminopeptidase N) [µM] | IC50 (HL-60) [µM]
N[C@@H](CNC(=O)[C@H](Cc1ccccc1)NC(=O)CCCCl)Cc1ccccc1 | 693 | 
CC(C)C[C@H](NC(=O)N[C@@H](C)C(=O)O)C(=O)NC[C@H](N)Cc1ccccc1 | 522 | 
NCCCC[C@H](NC(=O)N[C@@H](Cc1ccccc1)C(=O)NC[C@H](N)Cc1ccccc1)C(=O)O | 89.5 | 1490
CC[C@H](C)[C@H](NC(=O)N[C@@H](Cc1ccccc1)C(=O)NC[C@H](N)Cc1ccccc1)C(=O)O | 158 | 
CC(C)C[C@H](NC(=O)N[C@@H](CC(C)C)C(=O)NC[C@H](N)Cc1ccccc1)C(=O)O | 142 | 
CC(C)[C@H](NC(=O)N[C@@H](Cc1ccccc1)C(=O)NC[C@H](N)Cc1ccccc1)C(=O)O | 58.5 | 
NCCCC[C@H](NC(=O)N[C@@H](CS)C(=O)NC[C@H](N)Cc1ccccc1)C(=O)O | 8.6 | 290
CC(C)C[C@H](NC(=O)NCC(=O)O)C(=O)NC[C@H](N)Cc1ccccc1 | 3240 | 
N[C@@H](CNC(=O)[C@H](CS)NC(=O)N[C@H](CS)C(=O)O)Cc1ccccc1 | 10.3 | 540
CC(C)C[C@H](NC(=O)N[C@@H](Cc1ccccc1)C(=O)NC[C@H](N)Cc1ccccc1)C(=O)O | 181 | 
N[C@@H](CNC(=O)[C@H](Cc1ccccc1)NC(=O)c1ccc(Cl)cc1Cl)Cc1ccccc1 | 2260 | 
CSCC[C@H](NC(=O)N[C@@H](Cc1ccccc1)C(=O)NC[C@H](N)Cc1ccccc1)C(=O)O | 8.8 | 270
NCCCCCC(=O)N[C@@H](CS)C(=O)NC[C@H](N)Cc1ccccc1 | 202 | 
N[C@@H](CNC(=O)[C@H](CS)NC(=O)NCC(=O)O)Cc1ccccc1 | 174 | 
COc1ccc(C(=O)N[C@@H](Cc2ccccc2)C(=O)NC[C@H](N)Cc2ccccc2)cc1 | 174 | 
CSCC[C@H](NC(=O)N[C@@H](CS)C(=O)NC[C@H](N)Cc1ccccc1)C(=O)O | 16.5 | 1180

Structure (SMILES) | IC50 (Aminopeptidase N) [µM] | IC50 (HL-60) [µM]
N[C@@H](CNC(=O)[C@H](CS)NC(=O)c1ccc(Cl)cc1Cl)Cc1ccccc1 | 1050 | 
N[C@@H](CNC(=O)[C@H](Cc1ccccc1)NC(=O)CCc1ccccc1)Cc1ccccc1 | 366 | 
CC(C)C[C@H](NC(=O)N[C@@H](CS)C(=O)NC[C@H](N)Cc1ccccc1)C(=O)O | 45 | 2660
CSCC[C@H](NC(=O)N[C@@H](CC(C)C)C(=O)NC[C@H](N)Cc1ccccc1)C(=O)O | 30.4 | 
N[C@@H](CNC(=O)[C@H](Cc1ccccc1)NC(=O)c1ccc([N+](=O)[O-])cc1)Cc1ccccc1 | 1390 | 
NCCCCCC(=O)N[C@@H](Cc1ccccc1)C(=O)NC[C@H](N)Cc1ccccc1 | 1540 | 
CC(C)[C@H](NC(=O)N[C@@H](CS)C(=O)NC[C@H](N)Cc1ccccc1)C(=O)O | 58.8 | 
N[C@@H](CNC(=O)[C@H](Cc1ccccc1)NC(=O)N[C@H](CS)C(=O)O)Cc1ccccc1 | 49.2 | 
N[C@@H](CNC(=O)[C@H](CS)NC(=O)N[C@@H](Cc1ccccc1)C(=O)O)Cc1ccccc1 | 9.8 | 1060
CC(C)C[C@H](NC(=O)N[C@@H](Cc1ccc(O)cc1)C(=O)O)C(=O)NC[C@H](N)Cc1ccccc1 | 107 | 
CC[C@H](C)[C@H](NC(=O)N[C@@H](CS)C(=O)NC[C@H](N)Cc1ccccc1)C(=O)O | 14.8 | 
N[C@@H](CNC(=O)[C@H](Cc1ccccc1)NC(=O)c1cc([N+](=O)[O-])cc([N+](=O)[O-])c1)Cc1ccccc1 | 277 | 
CC[C@H](C)[C@H](NC(=O)N[C@@H](CC(C)C)C(=O)NC[C@H](N)Cc1ccccc1)C(=O)O | 148 | 
CC(C)C[C@H](NC(=O)CCCCCN)C(=O)NC[C@H](N)Cc1ccccc1 | 1460 | 
NCCC[C@H](NC(=O)N[C@@H](CS)C(=O)NC[C@H](N)Cc1ccccc1)C(=O)O | 33.2 | 
